ChEMBL document CHEMBL5154816, “Structure-Based Discovery and Optimization of Furo[3,2-c]pyridin-4(5H)-one Derivatives as Potent and Second Bromodomain (BD2)-Selective Bromo and Extra Terminal Domain (BET) Inhibitors” (J Med Chem, 2022)

Tests used:
[1] = target: T1, Bromodomain-containing protein 4 (Homo sapiens, UniProt O60885); test: Inhibition of C-terminal His6-tagged BRD4 BD2 (unknown origin) using H-YSGRGK(Ac)GGK(Ac)GLGK(Ac)-GGAK(Ac)RHRK-Biotin-OH as substrate incubated for 1 hrs by HTRF assay
[2] = target: T1, Bromodomain-containing protein 4; test: Inhibition of C-terminal His6-tagged BRD4 BD1 (unknown origin) using H-YSGRGK(Ac)GGK(Ac)GLGK(Ac)-GGAK(Ac)RHRK-Biotin-OH as substrate incubated for 1 hrs by HTRF assay
[3] = organism: Homo sapiens; test: Selectivity index, ratio of IC50 for BRD4 BD1 (unknown origin) to IC50 of BRD4 BD2 (unknown origin)
[4] = target: SWI/SNF-related matrix-associated actin-dependent regulator of chromatin subfamily A member 2 (Homo sapiens) (UniProt P51531); test: Binding affinity to SMARCA2A (unknown origin) assessed as change in melting temperature at 100 uM incubated for 30 mins by thermal shift assay
Chain of SWI/SNF-related matrix-associated actin-dependent regulator of chromatin subfamily A member 2 (Homo sapiens) (P51531 whole entry): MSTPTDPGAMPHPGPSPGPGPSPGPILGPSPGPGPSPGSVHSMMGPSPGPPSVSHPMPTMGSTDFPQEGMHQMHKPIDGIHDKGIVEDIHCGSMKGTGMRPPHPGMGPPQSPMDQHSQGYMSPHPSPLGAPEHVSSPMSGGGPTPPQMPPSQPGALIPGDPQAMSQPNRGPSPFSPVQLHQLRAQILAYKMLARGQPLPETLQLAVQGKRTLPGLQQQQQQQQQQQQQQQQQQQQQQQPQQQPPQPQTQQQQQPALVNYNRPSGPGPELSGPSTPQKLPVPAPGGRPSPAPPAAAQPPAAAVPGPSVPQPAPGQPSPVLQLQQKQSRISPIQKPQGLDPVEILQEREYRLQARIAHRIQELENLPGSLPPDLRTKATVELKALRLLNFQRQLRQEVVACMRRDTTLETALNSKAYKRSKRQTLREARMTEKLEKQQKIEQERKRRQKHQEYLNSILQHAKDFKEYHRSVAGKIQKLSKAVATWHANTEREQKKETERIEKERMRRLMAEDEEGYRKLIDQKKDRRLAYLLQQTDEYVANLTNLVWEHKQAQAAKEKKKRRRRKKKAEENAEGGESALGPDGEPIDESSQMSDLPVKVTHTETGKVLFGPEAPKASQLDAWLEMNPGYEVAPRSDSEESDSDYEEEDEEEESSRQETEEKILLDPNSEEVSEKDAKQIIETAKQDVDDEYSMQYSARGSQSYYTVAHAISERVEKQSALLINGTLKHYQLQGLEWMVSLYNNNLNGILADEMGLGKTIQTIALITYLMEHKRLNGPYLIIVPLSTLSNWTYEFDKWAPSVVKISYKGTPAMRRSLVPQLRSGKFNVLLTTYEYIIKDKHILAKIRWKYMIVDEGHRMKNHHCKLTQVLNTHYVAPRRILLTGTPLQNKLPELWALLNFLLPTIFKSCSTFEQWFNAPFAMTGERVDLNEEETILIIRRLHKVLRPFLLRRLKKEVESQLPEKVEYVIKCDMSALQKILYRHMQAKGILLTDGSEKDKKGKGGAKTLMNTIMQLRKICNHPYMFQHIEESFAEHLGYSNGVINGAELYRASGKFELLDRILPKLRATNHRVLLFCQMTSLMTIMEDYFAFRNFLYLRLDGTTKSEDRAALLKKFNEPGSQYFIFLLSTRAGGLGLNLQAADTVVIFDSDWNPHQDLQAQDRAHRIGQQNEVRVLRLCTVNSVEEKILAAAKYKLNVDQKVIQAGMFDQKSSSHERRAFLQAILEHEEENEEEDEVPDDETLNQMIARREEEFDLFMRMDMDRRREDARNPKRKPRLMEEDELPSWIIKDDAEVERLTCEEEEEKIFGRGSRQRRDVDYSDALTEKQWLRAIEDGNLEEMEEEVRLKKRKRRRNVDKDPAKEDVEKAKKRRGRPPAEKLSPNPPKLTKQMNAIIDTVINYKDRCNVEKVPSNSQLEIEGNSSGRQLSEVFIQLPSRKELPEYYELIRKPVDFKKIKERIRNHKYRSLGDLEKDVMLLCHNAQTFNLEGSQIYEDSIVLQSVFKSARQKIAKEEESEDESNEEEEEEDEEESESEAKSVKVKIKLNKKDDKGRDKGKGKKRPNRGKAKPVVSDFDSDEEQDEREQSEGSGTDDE

[5] = target: SWI/SNF-related matrix-associated actin-dependent regulator of chromatin subfamily A member 2 (Homo sapiens) (UniProt P51531); test: Binding affinity to SMARCA2B (unknown origin) assessed as change in melting temperature at 100 uM incubated for 30 mins by thermal shift assay
[6] = target: PH-interacting protein (Homo sapiens) (UniProt Q8WWQ0); test: Binding affinity to PHIP-2 (unknown origin) assessed as change in melting temperature at 100 uM incubated for 30 mins by thermal shift assay
[7] = Cytotoxicity against human HFL1 cells assessed as cell growth inhibition incubated for 72 hrs by Cell titre Glo-luminiscence cell viability assay; assay type: toxicity, cell-based
[8] = Metabolic stability in rat hepatocytes assessed as hepatic extraction ratio at 1 uM measured up to 60 mins in presence of NADPH by HPLC-MS/MS analysis; assay type: ADME, cell-based, Hepatocyte; conditions: read-out: ERH
[9] = Metabolic stability in human liver microsomes assessed as half life at 1 uM measured up to 60 mins in presence of NADPH by HPLC-MS/MS analysis; assay type: ADME, Microsome
[10] = Metabolic stability in human liver microsomes assessed as intrinsic clearance at 1 uM measured up to 60 mins in presence of NADPH by HPLC-MS/MS analysis; assay type: ADME, Microsome; conditions: 1 h
[11] = Metabolic stability in rat liver microsomes assessed as half life at 1 uM measured up to 60 mins in presence of NADPH by HPLC-MS/MS analysis; assay type: ADME, Microsome
[12] = Metabolic stability in human hepatocytes assessed as hepatic extraction ratio at 1 uM measured up to 60 mins in presence of NADPH by HPLC-MS/MS analysis; assay type: ADME, cell-based, Hepatocyte; conditions: read-out: ERH
[13] = Metabolic stability in rat hepatocytes assessed as hepatic clearance at 1 uM measured up to 60 mins in presence of NADPH by HPLC-MS/MS analysis; assay type: ADME, cell-based, Hepatocyte
[14] = Metabolic stability in human hepatocytes assessed as hepatic clearance at 1 uM measured up to 60 mins in presence of NADPH by HPLC-MS/MS analysis; assay type: ADME, cell-based, Hepatocyte
[15] = Metabolic stability in rat liver microsomes assessed as intrinsic clearance at 1 uM measured up to 60 mins in presence of NADPH by HPLC-MS/MS analysis; assay type: ADME, Microsome; conditions: 1 h

SMILES | IC50 [1] [nM] | IC50 [2] [nM] | Ratio IC50 [3] | also measured
Cc1cc(F)cc(C)c1Oc1ccc(C(C)(C)O)cc1-c1cn(C)c(=O)c2cc(-c3cnc(C4CCOCC4)[nH]3)oc12 | 0.46 | 60 | 130 | –
Cc1cc(-c2cc3c(=O)n(C)cc(-c4cc(NC(=O)C5CC5)ccc4Oc4ccc(F)cc4F)c3o2)cc(C)c1OCCO | 3.2 | 6.8 | 2.12 | –
Cc1cc(-c2cc3c(=O)n(C)cc(-c4cc(NS(=O)(=O)C(C)C)ccc4Oc4ccc(F)cc4F)c3o2)cc(C)c1OCCO | 0.94 | 1.4 | 1.49 | –
Cc1sc2c(c1C)C(c1ccc(Cl)cc1)=N[C@@H](CC(=O)OC(C)(C)C)c1nnc(C)n1-2 | – | – | – | ΔTm [4]: -0.25 °C; ΔTm [5]: 0.25 °C; ΔTm [6]: -1 °C
CCS(=O)(=O)Nc1ccc(Oc2ccc(F)cc2F)c(-c2cn(C)c(=O)c3cc(-c4cc(C)c(OCCO)c(C)c4)oc23)c1 | 0.6 | 0.56 | 0.93 | IC50 at 72 h [7]: < 10 nM
Cc1cc(-c2cc3c(=O)n(C)cc(-c4cc(C(C)(C)O)ccc4Oc4c(C)cc(F)cc4C)c3o2)cc(C)c1OCCCO | 1.4 | 63 | 45 | –
CCS(=O)(=O)Nc1ccc(Oc2c(OC)cccc2OC)c(-c2cn(C)c(=O)c3cc(-c4cc(C)c(OCCO)c(C)c4)oc23)c1 | 2 | 9.8 | 4.9 | –
Cc1cc(-c2cc3c(=O)n(C)cc(-c4cc(NS(=O)(=O)C5CC5)ccc4Oc4ccc(F)cc4F)c3o2)cc(C)c1OCCO | 1 | 1 | 1 | –
CCS(=O)(=O)Cc1ccc(Oc2ccc(F)cc2F)c(-c2cn(C)c(=O)c3cc(-c4cc(C)c(OCCO)c(C)c4)oc23)c1 | 0.55 | 0.33 | 0.6 | –
Cc1cc(-c2cc3c(=O)n(C)cc(-c4cc(CO)ccc4Oc4ccc(F)cc4F)c3o2)cc(C)c1OCCO | 0.98 | 4.1 | 4.18 | –
Cc1cc(-c2cc3c(=O)n(C)cc(-c4cc(NC(=O)C(C)C)ccc4Oc4ccc(F)cc4F)c3o2)cc(C)c1OCCO | 1.9 | 7.8 | 4.11 | –
Cc1cc(-c2cc3c(=O)n(C)cc(-c4cc(CS(=O)(=O)C(C)(C)C)ccc4Oc4ccc(F)cc4F)c3o2)cc(C)c1OCCO | 1.4 | 3.3 | 2.36 | –
Cc1cc(-c2cc3c(=O)n(C)cc(-c4cc(CS(=O)(=O)C(C)C)ccc4Oc4ccc(F)cc4F)c3o2)cc(C)c1OCCO | 0.62 | 0.57 | 0.92 | –
CCS(=O)(=O)Nc1ccc(Oc2c(F)cc(F)cc2F)c(-c2cn(C)c(=O)c3cc(-c4cc(C)c(OCCO)c(C)c4)oc23)c1 | 0.49 | 0.43 | 0.88 | –
CCS(=O)(=O)Nc1ccc(Oc2ccc(F)cc2F)c(-c2cn(C)c(=O)c3cc(-c4cnc(C5CCCC5)[nH]4)oc23)c1 | 0.91 | 4.1 | 4.52 | –
CCS(=O)(=O)Nc1ccc(Oc2ccc(F)cc2F)c(-c2cn(C)c(=O)c3cc(-c4cnc[nH]4)oc23)c1 | 0.51 | 1.2 | 2.35 | –
CCc1ncc(-c2cc3c(=O)n(C)cc(-c4cc(C(C)(C)O)ccc4Oc4c(C)cc(F)cc4C)c3o2)[nH]1 | 0.6 | 121 | 202 | –
CCS(=O)(=O)Nc1ccc(Oc2ccc(F)cc2F)c(-c2cn(C)c(=O)c3cc(-c4cc(C)cc(C)c4)oc23)c1 | 3.7 | 6.1 | 1.65 | –
Cc1cc(-c2cc3c(=O)n(C)cc(-c4cc(C(C)(C)O)ccc4Oc4ccc(F)cc4F)c3o2)cc(C)c1OCCO | 0.45 | 1.57 | 3.5 | –
CCC(=O)Nc1ccc(Oc2ccc(F)cc2F)c(-c2cn(C)c(=O)c3cc(-c4cc(C)c(OCCO)c(C)c4)oc23)c1 | 0.72 | 2.3 | 3.19 | –

SMILES | IC50 [1] [nM] | IC50 [2] [nM] | Ratio IC50 [3] | also measured
Cc1cc(F)cc(C)c1Oc1ccc(C(C)(C)O)cc1-c1cn(C)c(=O)c2cc(-c3cnc(C4CCOC4)[nH]3)oc12 (centres undefined) | 0.6 | 78 | 130 | –
O=C(c1ccc(F)cc1)C1CCN(CCn2c(=O)[nH]c3ccccc3c2=O)CC1 [KETANSERIN] | – | – | – | hepatic extraction ratio at 1 h, 1 µM [8]: 0.81; half-life at 1 µM [9]: 34 min; CLH [10]: 0.051 mL/min/g; half-life at 1 µM [11]: 18.9 min; hepatic extraction ratio at 1 h, 1 µM [12]: 0.712; CLhep predicted at 1 µM [13]: 25 mL/min/kg; CLhep predicted at 1 µM [14]: 14.7 mL/min/kg; CLH [15]: 0.131 mL/min/g
CCc1ncc(-c2cc3c(=O)n(C)cc(-c4cc(NS(=O)(=O)CC)ccc4Oc4ccc(F)cc4F)c3o2)[nH]1 | 0.5 | 1.2 | 2.4 | –
CCS(=O)(=O)Nc1ccc(Oc2ccc(F)cc2F)c(-c2cn(C)c(=O)c3cc(-c4cnc(C(C)C)[nH]4)oc23)c1 | 0.54 | 0.95 | 1.76 | –
CCS(=O)(=O)Nc1ccc(Oc2ccc(F)cc2F)c(-c2cn(C)c(=O)c3cc(-c4cc(C)c(CCCO)c(C)c4)oc23)c1 | 0.49 | 0.72 | 1.47 | –
CCS(=O)(=O)Nc1ccc(Oc2c(C)cccc2C)c(-c2cn(C)c(=O)c3cc(-c4cc(C)c(OCCO)c(C)c4)oc23)c1 | 1.3 | 6 | 4.62 | –
CCS(=O)(=O)Nc1ccc(Oc2ccc(F)cc2F)c(-c2cn(C)c(=O)c3cc(-c4cnc(C5CCC5)[nH]4)oc23)c1 | 0.94 | 2 | 2.13 | –
CCS(=O)(=O)Nc1ccc(Oc2ccc(F)cc2F)c(-c2cn(C)c(=O)c3cc(-c4ccc(CCCO)cc4)oc23)c1 | 0.41 | 0.75 | 1.83 | –
CCS(=O)(=O)Nc1ccc(Oc2ccc(F)cc2F)c(-c2cn(C)c(=O)c3cc(-c4ccc(OCCO)cc4)oc23)c1 | 0.62 | 0.56 | 0.9 | –
CCc1cccc(C)c1Oc1ccc(NS(=O)(=O)CC)cc1-c1cn(C)c(=O)c2cc(-c3cc(C)c(OCCO)c(C)c3)oc12 | 1.4 | 10 | 7.14 | –
CCS(=O)(=O)Nc1ccc(Oc2ccc(F)cc2F)c(-c2cn(C)c(=O)cc2OCc2ccccc2)c1 | 0.92 | – | – | –
Cc1cc(F)cc(C)c1Oc1ccc(C(C)(C)O)cc1-c1cn(C)c(=O)c2cc(-c3cnc(C(C)C)[nH]3)oc12 | 0.68 | 192 | 282 | –
CCS(=O)(=O)Nc1ccc(Oc2ccc(F)cc2F)c(-c2cn(C)c(=O)c3cc(-c4cnc(C5CC5)[nH]4)oc23)c1 | 0.34 | 0.7 | 2.06 | –
CCCS(=O)(=O)Nc1ccc(Oc2ccc(F)cc2F)c(-c2cn(C)c(=O)c3cc(-c4cc(C)c(OCCO)c(C)c4)oc23)c1 | 0.65 | 0.94 | 1.54 | –
CCS(=O)(=O)Nc1ccc(Oc2c(C)cc(F)cc2C)c(-c2cn(C)c(=O)c3cc(-c4cc(C)c(OCCO)c(C)c4)oc23)c1 | 0.8 | 6.5 | 8.12 | –
CCc1cccc(CC)c1Oc1ccc(NS(=O)(=O)CC)cc1-c1cn(C)c(=O)c2cc(-c3cc(C)c(OCCO)c(C)c3)oc12 | 9.7 | 61 | 6.29 | –
CCS(=O)(=O)Nc1ccc(Oc2ccc(F)cc2F)c(-c2cn(C)c(=O)c3cc(-c4cnc(C)[nH]4)oc23)c1 | 0.76 | 0.53 | 0.7 | –
CCS(=O)(=O)Nc1ccc(Oc2ccc(F)cc2F)c(-c2cn(C)c(=O)c3cc(-c4ccccc4)oc23)c1 | 1.5 | 2.4 | 1.6 | –
Cc1cc(-c2cc3c(=O)n(C)cc(-c4cc(NS(C)(=O)=O)ccc4Oc4ccc(F)cc4F)c3o2)cc(C)c1OCCO | 0.76 | 0.39 | 0.51 | –
CC(=O)Nc1ccc(Oc2ccc(F)cc2F)c(-c2cn(C)c(=O)c3cc(-c4cc(C)c(OCCO)c(C)c4)oc23)c1 | 0.83 | 0.52 | 0.63 | –
